Results on eleven compounds are retold here after patent publication US11066369B2, “N-(pyridin-2-yl)pyridine-sulfonamide derivatives and their use in the treatment of disease” (Novartis AG, priority 2016, dated 2021).

pEC50: −log10 of the molar value. Where two headings read alike, the source gives them in different places.

In general, pEC50 refers to the EC50 on a negative log10 scale, so that one unit is a factor of ten.

For this test, the target named is T1, horseradish peroxidase (HRP) tagged delF508-CFTR (Homo sapiens, UniProt P13569, DEL508-508).
T1 construct: expressed in transfected cells
Description: Measurement of delF508-CFTR-HRP surface expression in CFBE41o- cells.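 For DelF508-CFTR-HRP Amax %: percent efficacy relative to reference corrector lumacaftor.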 Particulars: CFBE41o- cells; for Emax: read-out: DelF508-CFTR-HRP Amax %; for pEC50: read-out: DelF508-CFTR-HRP EC50. It is filed as cell-based. Put shortly: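 Surface-trafficked delF508-CFTR detected via extracellular HRP tag, read as luminescence from a membrane-impermeant substrate in CFBE41o- cells. Cells pre-induced 48h with 500 ng/mL doxycycline, then exposed 24h at 37° C to a 10-point, 3-fold dilution series from 10 μM (DMSO ≤0.5%). Triplicate dose-responses fitted logistically for EC50 after per-plate normalization; fold change versus reference compound.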

[1] abbreviates: delF508-CFTR-HRP surface expression.
Setting [2] is: mean of at least two replicates.

T1 sequence (P13569 with tags, fused parts or gaps DEL508-508): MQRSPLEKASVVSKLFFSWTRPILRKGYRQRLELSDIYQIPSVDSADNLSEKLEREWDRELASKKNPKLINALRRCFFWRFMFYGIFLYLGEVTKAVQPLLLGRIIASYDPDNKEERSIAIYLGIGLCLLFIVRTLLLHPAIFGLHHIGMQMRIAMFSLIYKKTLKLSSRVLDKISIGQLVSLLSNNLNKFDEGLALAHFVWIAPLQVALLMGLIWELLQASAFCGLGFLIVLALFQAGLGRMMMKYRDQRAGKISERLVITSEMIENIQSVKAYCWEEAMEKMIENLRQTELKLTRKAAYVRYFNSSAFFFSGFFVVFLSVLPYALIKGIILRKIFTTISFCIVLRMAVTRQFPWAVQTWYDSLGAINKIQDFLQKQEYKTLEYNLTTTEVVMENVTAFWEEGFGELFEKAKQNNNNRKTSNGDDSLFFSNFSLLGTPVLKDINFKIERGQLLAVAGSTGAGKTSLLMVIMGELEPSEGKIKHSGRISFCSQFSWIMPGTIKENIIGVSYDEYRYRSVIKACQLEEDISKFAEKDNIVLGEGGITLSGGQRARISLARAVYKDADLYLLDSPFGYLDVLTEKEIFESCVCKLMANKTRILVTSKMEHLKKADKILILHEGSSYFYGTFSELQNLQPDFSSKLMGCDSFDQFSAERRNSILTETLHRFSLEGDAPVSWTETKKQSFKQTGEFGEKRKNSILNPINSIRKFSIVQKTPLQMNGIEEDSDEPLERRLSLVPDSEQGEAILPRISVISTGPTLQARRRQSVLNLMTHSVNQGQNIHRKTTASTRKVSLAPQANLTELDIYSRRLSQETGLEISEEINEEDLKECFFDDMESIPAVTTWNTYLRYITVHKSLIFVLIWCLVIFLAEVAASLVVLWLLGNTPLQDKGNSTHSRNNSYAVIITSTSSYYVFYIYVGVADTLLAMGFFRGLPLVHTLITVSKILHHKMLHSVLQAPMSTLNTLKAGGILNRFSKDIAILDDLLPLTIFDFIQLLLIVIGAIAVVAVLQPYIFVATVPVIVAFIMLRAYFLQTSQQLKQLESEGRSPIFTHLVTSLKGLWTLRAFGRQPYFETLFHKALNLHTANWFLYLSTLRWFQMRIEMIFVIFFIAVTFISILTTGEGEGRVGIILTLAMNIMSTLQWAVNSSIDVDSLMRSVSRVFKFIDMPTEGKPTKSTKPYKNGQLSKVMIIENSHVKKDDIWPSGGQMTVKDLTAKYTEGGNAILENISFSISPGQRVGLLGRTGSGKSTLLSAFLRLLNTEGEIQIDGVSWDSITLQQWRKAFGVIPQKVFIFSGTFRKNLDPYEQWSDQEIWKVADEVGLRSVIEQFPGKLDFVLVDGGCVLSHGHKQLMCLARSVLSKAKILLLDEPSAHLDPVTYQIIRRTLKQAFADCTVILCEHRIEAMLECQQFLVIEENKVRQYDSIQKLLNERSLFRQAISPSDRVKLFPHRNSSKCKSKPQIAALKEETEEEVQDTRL

Regarding `Cc1ccc(F)cc1-c1nc(NS(=O)(=O)c2ccnc(N3CCNCC3)c2)ccc1Cl` [Example 327, N-(5-chloro-6-(5-fluoro-2-methylphenyl)pyridin-2-yl)-2-(piperazin-1-yl)pyridine-4-sulfonamide], under setting [1], the Emax was determined as 92.5% and the pEC50 is 5.37.
In the case of `CC(C)COc1ccccc1-c1nc(NS(=O)(=O)c2cccc(N3CCCC(C)(C(=O)O)C3)n2)ccc1Cl` (stereo not shown) [Example 400, 1-(6-(N-(5-chloro-6-(2-isobutoxyphenyl)pyridin-2-yl)sulfamoyl)pyridin-2-yl)-3-methylpiperidine-3-carboxylic Acid], under setting [2], the pEC50 is 5.96. The Emax (surface expression Amax) worked out at 672%.
Regarding `Cc1ccc(C#N)cc1-c1nc(NS(=O)(=O)c2ccnc(N)c2)ccc1C(F)(F)F` [Example 64, 2-amino-N-(6-(5-cyano-2-methylphenyl)-5-(trifluoromethyl)pyridin-2-yl)pyridine-4-sulfonamide], under setting [1], the Emax is 223% and the pEC50 was 5.71.
`CC(C)c1ccccc1-c1nc(NS(=O)(=O)c2cccc(N3CCC[C@](C)(C(=O)O)C3)n2)ccc1C(F)(F)F` [Example 385, (S)-1-(6-(N-(6-(2-isopropylphenyl)-5-(trifluoromethyl)pyridin-2-yl)sulfamoyl)pyridin-2-yl)-3-methylpiperidine-3-carboxylic Acid]: under setting [2], the pEC50 is 6.09. Moreover, the Emax (surface expression Amax) is 668%.
On to `CC1(C(=O)O)CCCN(c2cccc(S(=O)(=O)Nc3ccc(Cl)c(-c4ccccc4C4CCC4)n3)n2)C1` (stereo not shown) [Example 389, 1-(6-(N-(5-chloro-6-(2-cyclobutylphenyl)pyridin-2-yl)sulfamoyl)pyridin-2-yl)-3-methylpiperidine-3-carboxylic Acid], for which the pEC50 under setting [2] was 5.98. Further, the Emax (surface expression Amax) is 749%.
Regarding `Cc1ccccc1-c1nc(NS(=O)(=O)c2cccc(N3CCC[C@@](C)(C(=O)O)C3)n2)ccc1C1CC1` [Example 411, (R)-1-(6-(N-(5-cyclopropyl-6-(o-tolyl)pyridin-2-yl)sulfamoyl)pyridin-2-yl)-3-methylpiperidine-3-carboxylic Acid], under setting [2], the pEC50 is 5.86. Moreover, the Emax (surface expression Amax) is 400%.
As for `CC1(C(=O)O)CCN(c2cccc(S(=O)(=O)Nc3ccc(Cl)c(-c4ccccc4Cl)n3)n2)CC1` [Example 239, 1-(6-(N-(5-chloro-6-(2-chlorophenyl)pyridin-2-yl)sulfamoyl)pyridin-2-yl)-4-methylpiperidine-4-carboxylic Acid], under setting [1], the Emax is 280% and the pEC50 is 5.35.
Turning to `COc1ccc(NS(=O)(=O)c2cccc(N3CCC[C@@](C)(C(=O)O)C3)n2)nc1-c1ccccc1C1CC1` [Example 408, (R)-1-(6-(N-(6-(2-cyclopropylphenyl)-5-methoxypyridin-2-yl)sulfamoyl)pyridin-2-yl)-3-methylpiperidine-3-carboxylic Acid], the pEC50 under setting [2] was 5.70. Further, the Emax (surface expression Amax) came out at 271%.
Consider `CC(C)c1ccccc1-c1nc(NS(=O)(=O)c2cccc(N[C@H]3CCC[C@H](C(=O)O)C3)n2)ccc1C(F)(F)F` [Example 418, (1S,3S)-3-((6-(N-(6-(2-isopropylphenyl)-5-(trifluoromethyl)pyridin-2-yl)sulfamoyl)pyridin-2-yl)amino)cyclohexanecarboxylic Acid], for which, under setting [2], the pEC50 was 5.91. Also, where the note is “surface expression Amax”, the Emax is 644%.
As to `Cc1cc(C#N)ccc1-c1nc(NS(=O)(=O)c2ccnc(N)c2)ccc1Cl` [Example 92, 2-amino-N-(5-chloro-6-(4-cyano-2-methylphenyl)pyridin-2-yl)pyridine-4-sulfonamide], under setting [1], the Emax was 23.9% and the pEC50 was 5.96.
Turning to `CC(C)COc1ccccc1-c1nc(NS(=O)(=O)c2cccc(N3CCC[C@@](C)(C(=O)O)C3)n2)ccc1Cl` [Example 422, (R)-1-(6-(N-(5-chloro-6-(2-isobutoxyphenyl)pyridin-2-yl)sulfamoyl)pyridin-2-yl)-3-methylpiperidine-3-carboxylic Acid], under setting [2], the pEC50 was 5.86. For the same compound, the Emax (surface expression Amax) stood at 905%.
